Experimental data published in patent US5550110A, “Endothelin Antagonists II” (Warner-Lambert Company, priority 1994, dated 1996).
Peptide text beside a SMILES is read from it.

Tests used:
[1] = test system: CaCO-2 cells (human colon adenocarcinoma cell line); type: in vitro ADME
Method: For experiments, the cells were counted, then diluted to 2.5×10^5 cells/mL for planting (400 μL per well) onto Snapwell culture membranes with 2.5 mL media in the lower chamber. Media in the […] was changed every 2 to 3 days. Cells used for this series of experiments were between passage 38 and 91. 2-[N-Morpholino]ethanesulfonic acid (MES)+25 mM glucose was used as incubation buffer for all the experiments and all incubation solutions were prepared to an osmotic pressure of 280 to 300 milliosmoles. The concentration of the endothelin antagonist being studied (for all experiments) was 100 μM and another endothelin antagonist with similar HPLC characteristics (retention time 2-3 minutes from the ET antagonist being studied, and similar chemical characteristics) was used at a concentration of 25 μM as an internal standard to compensate for any injection error. Prior to the start of the experiment, the transepithelial electrical resistance (TEER) was measured for each Snapwell (in media) at three points of the membrane. […] The membranes were washed by swirling in 0.9% normal saline and mounted in the pretreated diffusion chambers [0.1 mg/mL human serum albumin for 1 to 2 hours at 37° C. with O2 bubbling followed by air drying at 37° C. overnight, then with 4.5 to 5.0 mL dosing solution (MES+glucose+^14 C-PEG-4000 (5000 dpm/50 μL)+drug) for 5 minutes and 4.5 to 5.0 mL MES+glucose rinse just before the experiment.] The apical (donor) side was filled with 4.5 to 5.0 mL dosing solution, the basolateral (receiver) side with MES+glucose. Samples were removed from the donor and receiver compartments over the course of the experiment and analyzed for ^14 C-PEG 4000 (cell membrane integrity) and endothelin content.

[2] = molecular target: T1, endothelin receptor (ETB), rat cerebellar membranes (Rattus norvegicus, UniProt P21451); assay: Endothelin Receptor Binding Assay-B (ERBA-B), [125I]-ET-1 binding in rat cerebellar membranes; conditions: [125I]-ET-1 25 pM, read-out: ERRA-B IC50
T1 construct: thaw one aliquot of frozen rat cerebellar membranes (2 mg protein in 0.5 mL); from tissue; host or cells: rat cerebellum (membranes)
T1 sequence (P21451 27-442): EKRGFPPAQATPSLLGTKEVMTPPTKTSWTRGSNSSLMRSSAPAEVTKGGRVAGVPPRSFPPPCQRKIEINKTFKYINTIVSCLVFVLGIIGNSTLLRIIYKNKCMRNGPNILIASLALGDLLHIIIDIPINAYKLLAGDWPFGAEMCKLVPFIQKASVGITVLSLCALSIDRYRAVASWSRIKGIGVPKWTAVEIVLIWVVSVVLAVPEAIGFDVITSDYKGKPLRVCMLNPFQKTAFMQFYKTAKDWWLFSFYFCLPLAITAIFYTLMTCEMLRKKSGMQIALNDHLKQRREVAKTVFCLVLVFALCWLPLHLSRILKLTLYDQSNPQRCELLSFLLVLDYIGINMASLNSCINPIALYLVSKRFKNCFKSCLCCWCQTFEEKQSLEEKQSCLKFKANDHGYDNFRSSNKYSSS
Method: Endothelin Receptor Binding Assay-B (ERBA-B) [^125 I]-ET-1 Binding in Rat Cerebellar Membranes
The tissue is made up of 20 mM tris(hydroxymethyl)aminomethane hydrochloride (Trizma) buffer, 2 mM ethylenediaminetetra acetate, 100 μM phenylmethylsulfonyl fluoride.
First, thaw one aliquot of frozen rat cerebellar membranes (2 mg protein in 0.5 mL). Next, add 0.5 mL membrane aliquot to 4.5 mL cold tissue buffer, polytron at 7,500 revolutions per minute for 10 seconds. Finally, dilute tissue suspension 1/100 (0.1 mL suspension+9.9 mL tissue buffer), polytron again, and place ice.
Medium 199 with Hank's salts plus 25 mM Hepes+1 mg/mL bovine serum albumin.
Amersham [^125 I]-ET-1 (aliquots of 2×10^6 cpm per […] aliquot of [^125 I]-ET-1 with 5.2 mL dilution buffer, place on ice until use (final concentration will be 20,000 cpm per tube, or 25 pM).
Add 50 μL each of cold [^125 ]-ET-1 and competing ligand to tubes on ice. Mix in 150 μL of tissue to each tube, vortex briefly, then tap to force all liquids to bottom (total assay volume=250 μL). Then place the tubes in a 37° C. water bath for 2 hours.
Add 2.5 mL cold wash buffer (50 mM Trizma buffer) to each tube, filter, and then wash tube with additional 2.5 mL wash buffer and add to filter. Finally, wash filters with an additional 2.5 mL of cold wash buffer.
Count filters for radioactivity in gamma counter.

With `CC[C@H](C)[C@H](NC(=O)[C@H](CC(=O)O)NC(=O)[C@H](CC(C)C)NC(=O)[C@H](NC(C)=O)C1c2ccccc2CCc2ccccc21)C(=O)N[C@H](C(=O)N[C@@H](Cc1c[nH]c2ccccc12)C(=O)O)[C@@H](C)CC` [Example 1, Ac-D-Bhg-Leu-Asp-Ile-Ile-Trp] (HELM PEPTIDE1{[ac].[O=C([C@H](N[*:1])C1c2ccccc2CCc2ccccc21)[*:2]].L.D.I.I.W}$$$$V2.0) the “absorption in the gut suggested by CaCO-2 values” [1] was 5-10% and the IC50 [2] was 19 nM.

`CC[C@H](C)[C@H](NC(=O)[C@H](CC(=O)O)NC(=O)[C@H](CC(C)C)NC(=O)[C@H](NC(C)=O)C1c2ccccc2CCc2ccccc21)C(=O)N(C)[C@H](C(=O)N[C@@H](Cc1c[nH]c2ccccc12)C(=O)O)[C@@H](C)CC` [Example 19, Ac-D-Bhg-Leu-Asp-Ile-N-MeIle-Trp] (HELM PEPTIDE1{[ac].[O=C([C@H](N[*:1])C1c2ccccc2CCc2ccccc21)[*:2]].L.D.I.[meI].W}$$$$V2.0) was tested, and the “absorption in the gut suggested by CaCO-2 values” [1] was 5-10% and the IC50 [2] was 40 nM.
